Data published in US11708338B2, “Substituted phenyl sulfonyl phenyl triazole thiones and uses thereof” (Neuropore Therapies, Inc., priority 2017, dated 2023).

How the values were obtained:
Format in all cases: in vivo, mouse
L61 ASYN transgenic mice = test: Grip strength evaluation (motor performance), 3 month administration study; conditions: 5 mg/kg and 10 mg/kg i.p. daily, after 70 days of treatment
Procedure: The effects of Compound 1 on the motor performance deficits (grip strength) and a marker of neuroinflammation (Translocator Protein (18 kDa)) were assessed in both L61 ASYN transgenic and non-transgenic mice in a 3 month administration study.
Compound 1 was injected into L61 ASYN transgenic mice and non-transgenic control mice (i.p., once daily) at doses of 5 and 10 mg/kg for 3 months (79 total mice, n=14-17 mice per treatment group). The vehicle control consisted of a solution containing 5% DMSO+20% Cremphor EL+0.9% normal saline. The baseline grip strength of mice was evaluated prior to starting treatments for the 3 month study, and then re-evaluated following 70 days of treatment with vehicle or Compound 1 (5 or 10 mg/kg, i.p. daily).
At baseline, there was a statistically significant grip strength deficit in transgenic mice compared to non-transgenic mice. Treatment with Compound 1 (5 & 10 mg/kg) improved L61 ASYN transgenic grip strength deficits.

monomeric ASYN = test: ProteinSimple western biochemical evaluation of monomeric ASYN in cytosolic fraction of brain homogenates; conditions: L61 ASYN transgenic mice, 1, 5 or 10 mg/kg per day i.p., 1 month
Procedure: Multiple in vivo administration studies of Compound 1 were carried out in the Line 61 (L61) mThy1-alpha-synuclein transgenic mouse model of Parkinson's disease (PD). The mThy1-alpha-synuclein transgenic mouse model overexpresses wild-type human ASYN under the Thy-1 promoter studies (commonly referred to as Line 61 transgenic mice; Rockenstein et al., 2002). […]
Alpha-synuclein (ASYN) is a neuronal protein whose dysregulation has been implicated in the pathogenesis of PD. The effects of Compound 1 on alpha-synuclein aggregation were assessed in both L61 ASYN transgenic and non-transgenic mice in a 1 month administration study. […] At the end of one month, the mice were sacrificed, and immunohistochemical (IHC) detection of total alpha-synuclein deposits, insoluble alpha-synuclein deposits (PK+resistant), microtubule-associated protein 1A/1B-light chain 3 (LC3), and monomeric alpha-synuclein levels were assessed in the harvested brain tissues.
Biochemical evaluations were conducted using a ProteinSimple© western biochemical evaluation. Briefly, samples were mixed with pre-calculated volumes of 0.1×Sample Buffer and 5×Fluorescent Master Mix to make a final sample concentration of 0.4 mg/mL in 10 μL solution for signal optimization and evaporation reduction. […]

[1] = system: dopaminergic (DAT) transporter; test: DAT IHC immunolabeling in striatum, striatal-to-reference ratio; conditions: L61 ASYN transgenic mice, 3 months
Procedure: The harvested brain tissues were drop fixed using 4% PFA and sectioned on a vibratome, and representative sections corresponding to the striatum and cerebellum were assessed for DAT with IHC staining.
Immunolabeling studies of DAT were conducted using a monoclonal antibody (1:500; MAB369; Millipore, Temecula, Calif.) and a biotinylated secondary antibody (1:100; BA4000, Vector Labs) and analysis was performed on blindcoded sections from Line 61 transgenic and non-transgenic mice. Slides were digitized using a high resolution automated Nanozoomer slide scanner (Hamamatsu Corp.). Digitized images were analyzed using Halo (Indica Labs) image analysis software package by placing an ROI frame within the dorsal striatum and another within a separate reference brain region (for normalization of DAT signal). A thresholding algorithm was defined and then applied equally to all images to determine the average optical density of DAT immunolabeling across each ROI The results of the analysis were then exported for graphing and statistical analysis and the striatal DAT:cortical (reference region) DAT optical densities ratio was calculated for each subject.
Quantification of DAT density was carried out by calculating the immunofluorescence in striatal sections against that in cerebellum sections to derive a striatal-to-reference ratio.

O=S(=O)(c1ccc(-n2cn[nH]c2=S)cc1)c1ccc(Cl)c(C(F)(F)F)c1 [Compound 1, 4-(4-((4-chloro-3-(trifluoromethyl)phenyl)sulfonyl)phenyl)-2,4-dihydro-3H-1,2,4-triazole-3-thione]
grip strength vs vehicle-treated transgenic mice (L61 ASYN transgenic mice): higher grip strengths than vehicle-treated transgenic mice in a statistically significant manner | cortical levels of monomeric ASYN in cytosolic fraction of brain homogenates (monomeric ASYN): reduced | hippocampal levels of monomeric ASYN in cytosolic fraction of brain homogenates (monomeric ASYN): reduced | striatal levels of DAT, staining intensity in representative images (FIG. 18) vs vehicle-treated L61 mice ([1]; 5 mg/kg or 10 mg/kg daily): restoring striatal levels of DAT | DAT striatal-to-reference ratio, quantification (FIG. 19) ([1]; 10 mg/kg dose): reduces the GFAP levels in a statistically significant manner
